In ChEMBL document CHEMBL5579832, “Design, synthesis, and biological evaluation of pyrido[2,3-d]pyrimidin-7(8H)-one derivatives as potent USP1 inhibitors” (Eur J Med Chem, 2024):
Calls of active or inactive are those of the source. The rule behind the calls is not given here.

What was measured:
[1] = Half life in male ICR mouse at 10 mg/kg, po administered as single dose and measured after 24 hrs; type: ADME, organism-based; conditions: in vivo
NCI-H1299 = assay: Inhibition of colony formation in human NCI-H1299 cells at 0.5 uM measured after 7 days by SRB staining based assay relative to control; type: functional; conditions: NCI-H1299, 168 h, time 7 day
[2] = target: T1, Ubiquitin carboxyl-terminal hydrolase 1/WD repeat-containing protein 48 (Homo sapiens) (UniProt O94782+Q8TAF3); assay: Non competitive inhibition of USP1/UAF1 complex (unknown origin) using Ub-7-amido-4-methylcoumarin as substrate at 0 to 200 nM incubated for 120 mins by Lineweaver-burk plot analysis; type: protein-complex assay; conditions: dose 0-200 nM
[3] = target: T1, Ubiquitin carboxyl-terminal hydrolase 1/WD repeat-containing protein 48 (Homo sapiens); assay: Inhibition of recombinant human 6His-tagged USP1-6His-tagged UAF1 complex using diubiquitin as a substrate assessed as inhibiting the cleavage of K63-linked di-Ub at 0 to 10 uM preincubated for 15 mins followed by substrate addition and measured after 2 hrs by SDS-PAGE analysis; type: protein-complex assay; conditions: dose 0-10 µM, time 135.0 min
[4] = target: T2, Ubiquitin carboxyl-terminal hydrolase 4 (Homo sapiens) (UniProt Q13107); assay: Inhibition of recombinant human 6His-tagged USP4 using diubiquitin as a substrate at 0 to 10 uM preincubated for 15 mins followed by substrate addition and measured after 2 hrs by SDS-PAGE analysis; conditions: dose 0-10 µM, time 135.0 min
T2 sequence (whole entry): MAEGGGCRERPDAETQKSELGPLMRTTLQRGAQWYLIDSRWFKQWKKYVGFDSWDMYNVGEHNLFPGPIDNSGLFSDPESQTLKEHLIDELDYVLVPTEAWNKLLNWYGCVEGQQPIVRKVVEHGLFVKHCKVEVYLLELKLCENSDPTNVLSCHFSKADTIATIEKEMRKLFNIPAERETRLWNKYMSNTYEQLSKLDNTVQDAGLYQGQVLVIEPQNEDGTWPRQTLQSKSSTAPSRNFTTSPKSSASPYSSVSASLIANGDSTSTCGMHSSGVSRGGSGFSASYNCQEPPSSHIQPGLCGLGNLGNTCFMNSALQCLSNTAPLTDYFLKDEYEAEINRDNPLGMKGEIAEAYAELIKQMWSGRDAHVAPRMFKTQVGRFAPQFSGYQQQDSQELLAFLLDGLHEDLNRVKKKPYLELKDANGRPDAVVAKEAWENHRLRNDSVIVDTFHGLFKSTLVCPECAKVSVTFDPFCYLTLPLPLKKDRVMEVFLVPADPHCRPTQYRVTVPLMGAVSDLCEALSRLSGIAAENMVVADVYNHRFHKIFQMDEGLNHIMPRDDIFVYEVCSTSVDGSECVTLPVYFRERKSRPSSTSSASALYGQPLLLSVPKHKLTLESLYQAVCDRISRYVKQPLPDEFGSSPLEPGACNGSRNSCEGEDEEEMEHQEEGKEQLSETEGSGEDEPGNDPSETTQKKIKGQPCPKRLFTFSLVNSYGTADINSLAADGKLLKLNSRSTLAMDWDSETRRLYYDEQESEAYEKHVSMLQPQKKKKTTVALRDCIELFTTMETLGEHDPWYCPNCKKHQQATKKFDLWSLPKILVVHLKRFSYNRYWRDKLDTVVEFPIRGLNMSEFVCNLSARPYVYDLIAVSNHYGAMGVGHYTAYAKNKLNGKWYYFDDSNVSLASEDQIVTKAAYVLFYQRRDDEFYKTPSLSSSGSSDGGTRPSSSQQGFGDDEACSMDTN

[5] = target: T3, Ubiquitin carboxyl-terminal hydrolase 15 (Homo sapiens) (UniProt Q9Y4E8); assay: Inhibition of recombinant human 6His-tagged USP15 using diubiquitin as a substrate at 0 to 10 uM preincubated for 15 mins followed by substrate addition and measured after 2 hrs by SDS-PAGE analysis; conditions: dose 0-10 µM, time 135.0 min
T3 sequence (whole entry): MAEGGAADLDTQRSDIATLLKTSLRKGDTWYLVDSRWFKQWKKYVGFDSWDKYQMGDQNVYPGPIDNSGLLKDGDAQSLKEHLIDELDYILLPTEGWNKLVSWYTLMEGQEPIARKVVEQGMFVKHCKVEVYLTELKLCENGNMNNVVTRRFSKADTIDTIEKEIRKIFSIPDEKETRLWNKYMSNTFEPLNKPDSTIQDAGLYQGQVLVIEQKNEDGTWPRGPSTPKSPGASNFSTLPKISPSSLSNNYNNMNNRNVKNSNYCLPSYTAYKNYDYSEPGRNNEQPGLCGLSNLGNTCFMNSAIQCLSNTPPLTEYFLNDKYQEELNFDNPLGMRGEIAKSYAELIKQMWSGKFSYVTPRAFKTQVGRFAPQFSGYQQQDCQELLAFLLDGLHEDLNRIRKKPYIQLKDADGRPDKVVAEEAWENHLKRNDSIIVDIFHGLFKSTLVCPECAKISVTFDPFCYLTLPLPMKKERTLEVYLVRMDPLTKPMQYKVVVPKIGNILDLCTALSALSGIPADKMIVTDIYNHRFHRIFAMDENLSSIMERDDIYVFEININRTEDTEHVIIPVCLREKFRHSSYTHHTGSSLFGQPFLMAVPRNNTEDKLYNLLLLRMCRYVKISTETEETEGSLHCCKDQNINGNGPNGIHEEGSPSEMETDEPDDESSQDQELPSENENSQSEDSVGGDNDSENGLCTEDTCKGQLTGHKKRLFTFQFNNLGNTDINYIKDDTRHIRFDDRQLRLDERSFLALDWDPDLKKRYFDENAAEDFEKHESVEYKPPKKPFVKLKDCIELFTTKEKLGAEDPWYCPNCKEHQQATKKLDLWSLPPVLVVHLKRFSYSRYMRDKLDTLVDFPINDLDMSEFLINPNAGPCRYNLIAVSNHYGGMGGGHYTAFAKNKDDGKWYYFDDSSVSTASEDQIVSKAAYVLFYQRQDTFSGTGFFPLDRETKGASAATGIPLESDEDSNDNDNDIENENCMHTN

[6] = target: T1, Ubiquitin carboxyl-terminal hydrolase 1/WD repeat-containing protein 48 (Homo sapiens); assay: Inhibition of USP1/UAF1 in human MDA-MB-436 cells assessed as increase in Ub-PCNA level at 20 nM incubated for 24 hrs by Western blot analysis; type: cell-based
[7] = system: Olaparib-resistant MDA-MB-436; assay: Induction of cell cycle arrest in human Olaparib-resistant MDA-MB-436 cell assessed as increase in cells at S phase at 1 uM incubated for 24 hrs by PI staining based flow cytometry analysis; type: functional
[8] = system: Olaparib-resistant MDA-MB-436; assay: Induction of cell cycle arrest in human Olaparib-resistant MDA-MB-436 cell assessed as accumulation of cells in S phase at 1 uM incubated for 24 hrs in the presence of olaparib by PI staining based flow cytometry analysis; type: functional
[9] = system: Olaparib-resistant MDA-MB-436; assay: Induction of cell cycle arrest in human Olaparib-resistant MDA-MB-436 cell assessed as accumulation of cells in G2/M phase at 1 uM incubated for 24 hrs in the presence of olaparib by PI staining based flow cytometry analysis; type: functional
[10] = system: Olaparib-resistant MDA-MB-436; assay: Inhibition of colony formation in human Olaparib-resistant MDA-MB-436 cell at 100 nM measured after 7 days in the presence of olaparib by SRB staining based assay relative to control; type: functional; conditions: Olaparib-resistant MDA-MB-436, 168 h, time 7 day

half-life [1]: 7.61 h
inhibition [2]: Active
inhibition [3]: Active
inhibition [4]: inactive
inhibition [5]: inactive
inhibition [6]: Active
Compound: COc1ncnc(C2CC2)c1-c1ncc2ccc(=O)n(Cc3ccc(-c4nc(C(F)(F)F)cn4C(C)C)cc3)c2n1
inhibition at 0.5 µM (NCI-H1299): 70%
Activity [7]: Active
Activity [8]: Active
Activity [9]: Active
inhibition at 0.1 µM [10]: 50%
